Assay results from patent US5981544A, “Mono-- or diketone tetracyclic derivatives and therapeutical uses thereof” (Laboratoire Innothera, priority 1995, dated 1999).
“And” between values parts separate entries of the source, which are not always exact repeats. Identical values can stand only once.

Legend:
[1] = system: saphenous vein of rabbits; assay: Contractile effect on rabbit saphenous vein rings precontracted by depolarizing physiological solution (40 mM potassium); set-up: species or system rabbit (New Zealand); conditions: Oryctolagus cuniculus, precontracted at 40 mM potassium; for Emax: % of maximum contraction induced by depolarizing hyperpotassic solution, read-out: Emax (% of maximum contr.); for EC50: read-out: ED50 (the source's name)
Experimental: For the in vitro studies, the compounds are made soluble in a pure aqueous solution or a solution containing DMSO (dimethyl sulfoxide).
Contractile effects are measured, in vitro and under static conditions, on capacitance or resistance vascular rings of the saphenous, femoral, jugular, mesenteric, and caval veins; and on the femoral, carotid, basilar, mesenteric, and thoracic or abdominal aortic arteries, in rats (Wistar, 200 to 250 g), rabbits (New Zealand, 2 to 2.5 kg), and guinea pigs (Dunkin Hartley, 250 to 300 g).
The rings are placed in an isolated organ chamber (25 mL for capacitance vessels and 2.5 mL for resistance vessels, as per Mulvany), kept in isometric conditions by two stiff cables inserted into the interior of the vessel, avoiding any damage to the endothelium. The vessels are washed in a modified Krebbs solution (in mM: NaCl=118; KCl=4.6; ClCl2 =2.5; MgSO4 =1.2; KH2 PO4 =1.17; NcHCO3 =25; glucose=11), permanently aerated by a gaseous mixture at 95% O2 and 5% CO2, at pH=7.4 and set thermostatically at 37° C. The rings are taken to their optimal point of the tension-length ratio.
The tensions developed generate an electrical signal through a strength sensor (Wheatstone bridge). […] The pharmacological studies are carried out after some preliminary contractile stimulations standardized by a depolarizing solution (hyperpotassic solution obtained by replacing NaCl by KCl in equimolar quantities), rinses, and balancing periods in pure physiological solution. Presence of the endothelium is verified by the relaxation induced by increasing concentrations of acetylcholine after stabilization of a vascular precontraction.
The contraction forces developed by the vascular rings in response to the different compounds are studied on quiescent or electrically stimulated (5-8 Hz) vessels, using a hyperpotassic depolarizing physiological solution (KCl: 20, 40 mM), using noradrenaline (increasing concentrations), or using serotonin (increasing concentrations).
The contractions are expressed in mg of force or as a percentage of maximum contraction at depolarization by a hyperpotassic physiological solution.
The compounds of the invention and their derived salts selectively increase, in the majority of cases, the contraction of animal veins produced by noradrenaline, by electrical stimulation, or by a depolarizing hyperpotassic solution. By way of example, there is the contractile effect of different compounds on the saphenous vein of rabbits, precontracted by a depolarizing physiological solution with a potassium concentration equal to 40 mM; the maximum effect produced by each compound is expressed as the percentage of maximum contraction induced by the depolarizing hyperpotassic solutions and in ED50 values: […]

[2] = system: capillary resistance in rats; assay: Effects on capillary resistance (petechial index, negative pressure) after oral administration in rats; assay type: in vivo, rat (male Wistar); conditions: rat
Experimental: (§1) As for the in vivo studies, they are administered intravenously or intraperitoneally in the form of an aqueous solution with or without DMSO, or orally in a 1% carboxymethylcellulose suspension, administered with the use of a force-feed probe at a volume of 10 mL/kg.
Effects on capillary resistance:
The increase in capillary resistance is detected by the change in the petechial index (negative pressure inducing the extravasation of erythrocytes), measured by a method derived from Parrot's angiosterrometer.
The study is carried out on male Wistar rats weighing an average of 200 g (aged approximately 6 weeks). The lower back area is shaved, then depilated with the use of a paste based on a by-product of thioglycolic acid and calcium hydroxide. After approximately 30 min, the skin is rinsed abundantly and dried.
On the day of the study, the rats are kept nonconstrained. A low pressure of 80 mm of mercury is applied.
The minimum low pressure at which the petechiae appear expressed in mm of mercury, the value of the base capillary resistance (before any treatment). Two measurements are carried out for each trial on different places on the back. The rats are treated orally. After a predetermined amount of time (generally 2, 4, or 6 h) after the treatment, the test is renewed on different areas of skin, until petechiae appear, yielding a new low pressure index. All measurements are carried out in the blind mode.
The variation between the means of the base capillary resistance and post-treatment capillary resistance is calculated for the experimental animals, for each treatment time and compared to the control group (excipient only) or the reference group.
By way of example, the oral administration of certain compounds of the invention and their derived salts increases the capillary resistance in rats at doses generally between 0.01 and 5 mg/kg: […]

[3] = system: inflammatory hyperpermeability induced by zymosan in rats; assay: Effects on capillary hyperpermeability induced by zymosan in rats (Evans Blue albumin extravasation); assay type: in vivo, rat (Wistar); conditions: rat, oral
Experimental: as §1
Effects on induced capillary hyperpermeability
Vascular permeability is studied in vivo by measuring albumin extravasation, the quantity of which is determined by a coloring agent bonded to the albumin (Evans Blue). Hyperpermeability is induced by the intradermal injection of a histamine, bradykinin, or zymosan solution.
The technique is derived from that described by Beach and Steinetz, Journal of Pharmacology and Experimental Therapy, 131: 400-406, 1961.
The rats (Wistars, 200 to 230 g) are shaved on the abdominal wall 1 h before the start of the experiment. The product to be tested is injected i.p. or orally 1-4 h prior to sacrificing. The rats are anesthetized using a halothane mixture. They then receive an intradermal injection in the abdomen of 0.10 to 0.15 mL of an inflammatory agent (by histamine 6.7 or 10 μg) and an i.v. injection of 1 mL of Evans blue 0.5% solution in the vein of the penis. These injections are carried out 30 min prior to sacrificing.
30 min after these two injections, the rats are sacrificed by cervical dislocation.
At the locus of injection of the inflammatory agent, the skin is cut off and placed in ground-neck glass tubes containing 3 mL of fuming hydrochloric acid. Digestion of the skin is carried out by contact [with HCl] of at least 1 h in a double boiler at 37° C.; 3 mL of benzalkonium chloride at 12.8% are then added. After leaving undisturbed for 30 min, 7 mL of dichloromethane are added. The tubes are periodically agitated for 1 h. The aqueous phase is eliminated by aspiration and the organic dichloromethane phase is filtered. The optical densities are quantified by absorption spectrophotometry at a 620 nm wavelength, against a blank [control] containing only dichloromethane.
The averages for optical density of the different lots of experimental and control animals are calculated, then the variation between the data for the experimental animals and those for the control animals is calculated.
By way of illustration, the oral administration of certain compounds of the invention and their derived salts reduce inflammatory hyperpermeability induced by zymosan in rats in doses generally between 0.01 and 5 mg/kg: […]

[4] = system: mice; assay: Acute oral toxicity in mice; assay type: in vivo; conditions: single oral administration, 1 g/kg
Source text: Furthermore, the compounds of the invention and their derived salts have a very low toxicity.

SMILES | EC50 [1] [nM] | Emax [1] [%] | Effect at 4 hours (capillary resistance) ([2]; 5 mg/kg) | Effect at 6 hours (capillary resistance) ([2]; 5 mg/kg) | Effect at 2 hours (hyperpermeability induced by zymosan) ([3]; 0.1 mg/kg) | Effect at 4 hours (hyperpermeability induced by zymosan) ([3]; 0.1 mg/kg) | mortality [4] | toxic effect [4] | Effect at 2 hours (hyperpermeability induced by zymosan) ([3]; 5 mg/kg) | Effect at 4 hours (hyperpermeability induced by zymosan) ([3]; 5 mg/kg) | Effect at 6 hours (capillary resistance) ([2]; 0.1 mg/kg) | Effect at 4 hours (capillary resistance) ([2]; 0.1 mg/kg)
Cc1ccc2nc3c(n2c1)C(=O)C(=O)c1ccccc1-3 [Example 1, 5,6-Dihydro-5,6-dioxo-9-methyl-naphtho[1',2':4,5]-imidazo[1,2-a]pyridine] | 170 | 20 ± 4 | – | – | – | – | – | – | – | – | – | –
Cc1ccn2c3c(nc2c1)-c1ccccc1C(=O)C3=O [Example 2, 5,6-Dihydro-5,6-dioxo-10-methyl-naphtho[1',2':4,5]-imidazo[1,2-a] pyridine] | 271 | 28 ± 4 | 11 % of control | 13 % of control | -10 % of control | -15 % of control | no mortality was observable | no toxic effect was observable | – | – | – | –
Cc1cccn2c3c(nc12)-c1ccccc1C(=O)C3=O [Example 3, 5,6-Dihydro-5,6-dioxo-11-methyl-naphtho[1',2':4,5]-imidazo[1,2-a] pyridine] | 200 | 18 ± 4 | – | – | – | – | – | – | -13 % of control | -12 % of control | – | –
O=C1C(=O)c2c(nc3ccccn23)-c2ccccc21 [Example a, 5,6-Dihydro-5,6-dioxo-naphtho[1',2':4,5]imidazo[1,2-a] pyridine] | 306 | 32 ± 7 | – | – | – | – | no mortality was observable | no toxic effect was observable | -1 % of control | -28 % of control | – | –
O=C1C(=O)c2c(nc3ccc(Cl)cn23)-c2ccccc21 [Example c, 9-Chloro-5,6-dihydro-5,6-dioxo-naphtho[1',2':4,5]-imidazo[1,2-a]pyridine] | 157 | 27 ± 4 | 17 % of control | 10 % of control | -14 % of control | -11 % of control | no mortality was observable | no toxic effect was observable | – | – | 29 % of control and 17 % of control | –

Second part, led by results:

EC50 [1] [nM] | SMILES | Emax [1] [%] | Effect at 4 hours (capillary resistance) ([2]; 5 mg/kg) | Effect at 6 hours (capillary resistance) ([2]; 5 mg/kg) | Effect at 2 hours (hyperpermeability induced by zymosan) ([3]; 0.1 mg/kg) | Effect at 4 hours (hyperpermeability induced by zymosan) ([3]; 0.1 mg/kg) | mortality [4] | toxic effect [4] | Effect at 2 hours (hyperpermeability induced by zymosan) ([3]; 5 mg/kg) | Effect at 4 hours (hyperpermeability induced by zymosan) ([3]; 5 mg/kg) | Effect at 6 hours (capillary resistance) ([2]; 0.1 mg/kg) | Effect at 4 hours (capillary resistance) ([2]; 0.1 mg/kg)
58 | O=C1C(=O)c2c(nc3cc(Cl)ccn23)-c2ccccc21 [Example 12, 10-Chloro-5,6-dihydro-5,6-dioxo-naphtho[1',2':4,5]-imidazo[1,2-a] pyridine] | 13 ± 3 | – | – | – | – | – | – | – | – | – | –
450 | O=C1C(=O)c2c(nc3ncccn23)-c2ccccc21 [Example f] | 56 ± 7 | – | – | – | – | – | – | – | – | – | –
67 | O=C1c2ncccc2C(=O)c2c1nc1ccccn21 [Example h, 6,11-Dihydro-6,11-dioxo-pyrido[1',2':1,2]-imidazo[5,4-g]quinoline] | 18 ± 3 | – | – | -23 % of control | -5 % of control | – | – | – | – | 13 % of control | 19 % of control
